What all share (format): in vivo
In assay [1] the test system is ducksalad (Heteranthera limosa). Description: Test B flooded paddy test. The conditions noted are these: Heteranthera limosa, Flood, 250 g ai/ha; scale of 0 to 100 where 0 is no effect and 100 is complete control; read-out: Ducksalad plant response rating. An outline of the steps: (§1)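 Evaluation by eye, against controls, occurred 13–15 d post-treatment in a greenhouse, using a 0 (no effect) to 100 (complete control) scale. Application was into the paddy water, 3 cm deep over the soil, on 2-leaf plants.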

For assay [2], the system named is rice (Oryra sativa). Description: Test B flooded paddy test. The settings on record: Oryza sativa, Flood, 250 g ai/ha; scale of 0 to 100 where 0 is no effect and 100 is complete control; read-out: Rice plant response rating. The essentials: as §1
Assay [3] concerns sedge, umbrella (small-flower umbrella sedge, Cyperus difformis). Description: Test B flooded paddy test. The conditions noted are these: Cyperus difformis, Flood, 250 g ai/ha; scale of 0 to 100 where 0 is no effect and 100 is complete control; read-out: Sedge, Umbrella plant response rating. An outline of the steps:
as §1

In assay [4] the test system is barnyardgrass (Echinochloa crus-galli). Description: Test B flooded paddy test. The settings on record: Echinochloa crus-galli, Flood, 250 g ai/ha; scale of 0 to 100 where 0 is no effect and 100 is complete control; read-out: Barnyardgrass plant response rating. The essentials:
as §1

The test system of assay [5] is blackgrass (Alopecurus myosuroides). Description: Test A postemergence. The settings on record: Alopecurus myosuroides, post-emergence, 240 h, 125 g ai/ha. An outline of the steps:
(§2)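 Greenhouse, ~10 d after spray; visual injury vs untreated controls, 0 = no effect, 100 = complete control. Preemergence: directed soil spray over planted seeds. Postemergence: plants 2–10 cm, 1–2 leaf stage. Loam/sand blend. Compound in non-phytotoxic solvent with surfactant.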

The test system of assay [6] is ryegrass, Italian (Italian ryegrass, Lolium multiflorum). Description: Test A postemergence. The settings on record: Lolium multiflorum, post-emergence, 240 h, 125 g ai/ha. An outline of the steps: as §2
Assay [7] has as its system giant foxtail (Setaria faberii). Description: Test A postemergence. The conditions noted are these: Setaria faberi, post-emergence, 240 h, 125 g ai/ha. An outline of the steps:
as §2

The test system of assay [8] is barnyardgrass (Echinochloa crus-galli). Description: Test A postemergence. The conditions noted are these: Echinochloa crus-galli, post-emergence, 240 h, 125 g ai/ha. An outline of the steps:
as §2

Assay [9] deals with ragweed (common ragweed, Ambrosia elatior). Description: Test A postemergence. The conditions noted are these: Ambrosia artemisiifolia, post-emergence, 240 h, 125 g ai/ha. An outline of the steps: as §2
For assay [10], the system named is Kochia (Kochia scoparia). Description: Test A postemergence. The settings on record: Bassia scoparia, post-emergence, 240 h, 125 g ai/ha. An outline of the steps:
as §2

Assay [11] deals with pigweed (Amaranthus retroflexus). Description: Test A postemergence. The conditions noted are these: Amaranthus retroflexus, post-emergence, 240 h, 125 g ai/ha. The essentials: as §2
The test system of assay [12] is wheat (Triticum aestivum). Description: Test A postemergence. The conditions noted are these: Triticum aestivum, post-emergence, 240 h, 125 g ai/ha. An outline of the steps: as §2
Assay [13] has as its system Galium (catchweed bedstraw, Galium aparine). Description: Test A postemergence. The settings on record: Galium, post-emergence, 240 h, 125 g ai/ha. An outline of the steps: as §2
Assay [14] relates to corn (Zea mays). Description: Test A postemergence. The conditions noted are these: Zea mays, post-emergence, 240 h, 125 g ai/ha; for plant injury at 125 g/ha: postemergence, visual injury rating after approximately 10 d, read-out: Corn plant response rating (0 to 100 scale, 0 no effect, 100 complete control). The essentials: as §2
For assay [15], the system named is giant foxtail (Setaria faberii). Description: Test A preemergence. The conditions noted are these: Setaria faberi, pre-emergence, 240 h; for pest or weed control at 125 g/ha: 125 g ai/ha, preemergence, 0 to 100 scale where 0 is no effect and 100 is complete control, read-out: Foxtail, Giant plant response rating; for pest or weed control at 500 g/ha: 500 g ai/ha, Preemergence, visual injury vs untreated controls after approximately 10 d, read-out: Foxtail, Giant plant response rating (0 to 100 scale where 0 is no effect and 100 is complete control). The essentials:
as §2

The mark [16] stands for this setting: postemergence, visual injury rating after approximately 10 d, read-out: Blackgrass plant response rating (0 to 100 scale, 0 no effect, 100 complete control).
Where [17] appears, read: postemergence, visual injury rating after approximately 10 d, read-out: Ryegrass, Italian plant response rating (0 to 100 scale, 0 no effect, 100 complete control).
Setting [18] is: postemergence, visual injury rating after approximately 10 d, read-out: Foxtail, Giant plant response rating (0 to 100 scale, 0 no effect, 100 complete control).
Setting [19] is: postemergence, visual injury rating after approximately 10 d, read-out: Barnyardgrass plant response rating (0 to 100 scale, 0 no effect, 100 complete control).
Where [20] appears, read: postemergence, visual injury rating after approximately 10 d, read-out: Ragweed plant response rating (0 to 100 scale, 0 no effect, 100 complete control).
[21] abbreviates: postemergence, visual injury rating after approximately 10 d, read-out: Kochia plant response rating (0 to 100 scale, 0 no effect, 100 complete control).
[22] abbreviates: postemergence, visual injury rating after approximately 10 d, read-out: Pigweed plant response rating (0 to 100 scale, 0 no effect, 100 complete control).
Where [23] appears, read: postemergence, visual injury rating after approximately 10 d, read-out: Wheat plant response rating (0 to 100 scale, 0 no effect, 100 complete control).
The mark [24] stands for this setting: postemergence, visual injury rating after approximately 10 d, read-out: Galium plant response rating (0 to 100 scale, 0 no effect, 100 complete control).

Like-named read-outs stand apart in the source and are kept apart here.

As for `CCOc1ccc([C@H]2CNC(=O)[C@@H]2C(=O)Nc2cccc(F)c2F)cc1` [Compound 907], the pest or weed control at 250 g/ha in [1] was found to be 50%; in assay [2], 0%; in assay [3], 0%; in assay [4], 0%. In addition, the pest or weed control at 125 g/ha in [5] (setting [16]) was determined as 0%; in [6] (setting [17]), 0%; in [7] (setting [18]) it was 60%; in assay [8] (setting [19]), 50%; in [9] (setting [20]) it was 0%; in assay [10] (setting [21]), 0%. The pest or weed control at 125 g/ha stood at 0% in assay [11] (setting [22]), 0% in [13] (setting [24]) and 80% in assay [15]. Also, the plant injury at 125 g/ha in assay [12] (setting [23]) and in [14] was 0% throughout. Further, the pest or weed control at 500 g/ha in assay [15] stood at 90%.

As for `Cc1cc(C)cc([C@H]2CNC(=O)[C@@H]2C(=O)Nc2ccccc2C(F)(F)F)c1` [Compound 909], the pest or weed control at 250 g/ha in [1] amounted to 70%; in [2], 0%; in assay [3], 0%; in assay [4], 40%. Further, the pest or weed control at 125 g/ha in assay [5] (setting [16]) was 0%; in assay [6] (setting [17]) it was 0%; in [7] (setting [18]), 40%; in assay [8] (setting [19]) it was 50%; in assay [9] (setting [20]), 0%; in [10] (setting [21]), 0%. In addition, the pest or weed control at 125 g/ha came out at 0% in assay [11] (setting [22]), 0% in [13] (setting [24]) and 90% in assay [15]. For the same compound, the plant injury at 125 g/ha in assay [12] (setting [23]) and in assay [14] was 0% in each case. For the same compound, the pest or weed control at 500 g/ha in assay [15] is 90%.

For the compound `Cc1cc(C)cc([C@H]2CN(C)C(=O)[C@@H]2C(=O)Nc2ccccc2F)c1` [Compound 910], the pest or weed control at 250 g/ha was determined as 85% in assay [1], 0% in [2], 0% in assay [3] and 70% in [4]. Besides, the pest or weed control at 125 g/ha stood at 50% in assay [5] (setting [16]); 50% in assay [6] (setting [17]); 90% in assay [7] (setting [18]); 90% in [8] (setting [19]); 10% in [9] (setting [20]); 20% in assay [10] (setting [21]). The pest or weed control at 125 g/ha in assay [11] (setting [22]) came to 0%; in assay [13] (setting [24]), 30%; in assay [15], 90%. Besides, the results for the plant injury at 125 g/ha in assay [12] (setting [23]) and in [14] were 0% and 70%, respectively. Moreover, the pest or weed control at 500 g/ha in [15] worked out at 100%.

For `Cc1cc(C)cc([C@H]2CN(C)C(=O)[C@@H]2C(=O)Nc2ccccc2C(F)(F)F)c1` [Compound 912], the pest or weed control at 250 g/ha in assay [1] was 50%; in assay [2] it was 0%; in [3], 0%; in assay [4], 50%. Moreover, the pest or weed control at 125 g/ha was determined as 30% in assay [5] (setting [16]); 20% in assay [6] (setting [17]); 90% in assay [7] (setting [18]); 80% in [8] (setting [19]); 0% in [9] (setting [20]); 0% in [10] (setting [21]). Further, the pest or weed control at 125 g/ha in assay [11] (setting [22]) stood at 0%; in assay [13] (setting [24]) it was 0%; in assay [15], 90%. In addition, the values for the plant injury at 125 g/ha in assay [12] (setting [23]) and in assay [14] were 20% and 30%, respectively. Also, the pest or weed control at 500 g/ha in assay [15] worked out at 100%.

With `CN1CC[C@H](c2ccc(F)cc2)[C@@H](C(=O)Nc2ccccc2F)C1=O` [Compound 917], the pest or weed control at 250 g/ha in assay [1] came to 40%; in assay [2], 0%; in assay [3], 0%; in [4] it was 0%. In addition, the pest or weed control at 125 g/ha in assay [5] (Postemergence, visual injury after approximately 10 d, 0 to 100 scale where 0 is no effect and 100 is complete control, read-out: Plant response rating, Blackgrass) worked out at 0%; in assay [6] (Postemergence, visual injury after approximately 10 d, 0 to 100 scale where 0 is no effect and 100 is complete control, read-out: Plant response rating, Ryegrass, Italian) it was 0%; in assay [7] (Postemergence, visual injury after approximately 10 d, 0 to 100 scale where 0 is no effect and 100 is complete control, read-out: Plant response rating, Foxtail, Giant), 0%; in assay [8] (Postemergence, visual injury after approximately 10 d, 0 to 100 scale where 0 is no effect and 100 is complete control, read-out: Plant response rating, Barnyardgrass), 0%; in [9] (Postemergence, visual injury after approximately 10 d, 0 to 100 scale where 0 is no effect and 100 is complete control, read-out: Plant response rating, Ragweed), 0%; in [10] (Postemergence, visual injury after approximately 10 d, 0 to 100 scale where 0 is no effect and 100 is complete control, read-out: Plant response rating, Kochia), 0%. Further, the pest or weed control at 125 g/ha in assay [11] (Postemergence, visual injury after approximately 10 d, 0 to 100 scale where 0 is no effect and 100 is complete control, read-out: Plant response rating, Pigweed) turned out to be 0%; in [13] (Postemergence, visual injury after approximately 10 d, 0 to 100 scale where 0 is no effect and 100 is complete control, read-out: Plant response rating, Galium) it was 0%; in assay [15] it was 30%. For the same compound, the plant injury at 125 g/ha in assay [12] (Postemergence, visual injury after approximately 10 d, 0 to 100 scale where 0 is no effect and 100 is complete control, read-out: Plant response rating, Wheat) worked out at 0%. The compound also yielded a Corn plant response rating (crop injury, 0 = no effect, 100 = complete kill) at 125 g/ha in assay [14] (Postemergence, visual injury after approximately 10 d, 0 to 100 scale where 0 is no effect and 100 is complete control) of 0%. In addition, the pest or weed control at 500 g/ha in assay [15] is 90%.

(Values after US12077503B2, “Substituted cyclic amides and their use as herbicides” (FMC CORPORATION, priority 2015, dated 2024).)
